One data set has as its system DNA. To be noted: copper(II) complex, long-wave UV light; CuSO4 and drug 10 μM; cited from earlier work.
Data set [1] is described as follows: Lactone/carboxy ratio of irinotecan in buffers with or without copper sulphate, by HPLC (Example 2). The data set is classed as physicochemical. The following applies: presence of CuSO4, pH 7.5.
Data set [2] is described as follows: Thin layer chromatography for ring closed lactone and ring open carboxylate forms of irinotecan (Example 5). The data set is classed as physicochemical. To be noted: HEPES buffered saline, acidic conditions, 30 minutes; lactone form. As to the method:
Three sets of liposomal formulations of irinotecan were prepared as previously described. […] Any unencapsulated irinotecan was removed by column chromatography. […] The third formulation (B) contained irinotecan and floxuridine in the final composition. In this formulation the liposomes were prepared in the presence of floxuridine and then unencapsulated drug was removed by chromatography. […] In all cases the external pH was adjusted to match the internal liposomal pH prior to irinotecan loading.
Liposomal formulations of irinotecan were first analyzed for ring closed lactone and ring open carboxylate forms of the drug by thin layer chromatography. A set of standards were first prepared and used as a reference for the liposomal formulations. […] The TLC plates were dried overnight at room temperature and then run in a second solvent system composed of butanol:acetic acid:water:acetone (4:2:1:1). […] As the pH of the solution increased, the presence of the carboxylate band appears.
The plates were run in the same solvent systems and visualized by UV light.

The conditions of data set [3]: 3 hours of incubation in human blood; cited from earlier work.

As for `CC[C@@]1(O)C(=O)OCc2c1cc1n(c2=O)Cc2cc3cc(O)ccc3nc2-1` [10-hydroxycamptothecin], the DNA cleavage in the data set on DNA is recorded as 1.7%. Consider `CC[C@H]1C(=O)OCc2c1cc1n(c2=O)Cc2cc3ccccc3nc2-1` [20-deoxycamptothecin], for which, in the data set with DNA, the DNA cleavage is on record as 28%. As for `CCc1c2c(nc3ccc(OC(=O)N4CCC(N5CCCCC5)CC4)cc13)-c1cc3c(c(=O)n1C2)COC(=O)[C@]3(O)CC` [Irinotecan, irinotecan], the “irinotecan remaining in the lactone form” value in data set [1] (4 hours) worked out at 56.39%. In data set [1] (24 hours), the “irinotecan present in the ring-closed, lactone form” value is 58.66%. The “irinotecan species seen by TLC in aqueous standards” value in data set [2] is “dominant species”. In the case of `CC[C@@]1(O)C(=O)OCc2c1cc1n(c2=O)Cc2cc3ccccc3nc2-1` [camptothecin], in the data set on DNA, the DNA cleavage is 51%. Also, in data set [3], the lactone ring present was 5%.

The values above are taken from patent US20060193902A1, “Pharmaceutical compositions containing active agents having a lactone group and transition metal ions” (Celator Pharmaceuticals, Inc., priority 2003, published 2006).
